# Literature values in patent US20210369751A1, “BIOLOGICALLY ACTIVE COMPOSITIONS AND METHODS OF USING” (Mediwel Labs, LLC, priority 2020, published 2021).
# Entries after “also recorded” stand apart in the source; their conditions may differ.
# Tests used:
# [1] = propranolol co-administered with 3 mg piperine
# [2] = 20 mg piperine daily for seven days before 150 mg theophylline
# [3] = 20 mg piperine daily for seven days before 300 mg phenytoin
# CD38 = molecular target: T1, CD38 (Homo sapiens, UniProt P28907); settings: purified pharmaceutical grade flavonoids; competitive antagonists
# T1 sequence (P28907 1-300): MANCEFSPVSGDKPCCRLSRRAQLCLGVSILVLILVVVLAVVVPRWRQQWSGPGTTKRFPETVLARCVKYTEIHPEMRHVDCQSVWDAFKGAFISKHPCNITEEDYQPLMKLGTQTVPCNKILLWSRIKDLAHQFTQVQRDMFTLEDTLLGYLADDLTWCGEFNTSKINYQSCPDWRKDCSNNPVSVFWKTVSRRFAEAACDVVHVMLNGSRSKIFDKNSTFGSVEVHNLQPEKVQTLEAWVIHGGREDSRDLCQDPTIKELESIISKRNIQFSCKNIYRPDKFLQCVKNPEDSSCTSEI
elimination rate of theophylline with piperine pretreatment [2],"maximum concentration of theophylline, pretreated with piperine versus drug alone ([2]; six healthy volunteers)",elimination of phenytoin with piperine pretreatment [3],maximum concentration of phenytoin with piperine pretreatment [3],time to maximum concentration of phenytoin with piperine pretreatment [3],inhibition of CD38 and its catalytic activity (CD38),Compound,elimination rate of propranolol with piperine [1],maximum blood concentration / blood levels of propranolol with piperine [1]
significantly slowed down,1.5 times,significantly slower elimination,significantly higher concentrations,shorter time,,O=C(/C=C/C=C/c1ccc2c(c1)OCO2)N1CCCCC1 [piperine],did not affect the elimination rate; also recorded: without slowing down the drug elimination rate,increased two fold; also recorded: doubling its blood levels
,,,,,potent inhibition,O=c1c(O)c(-c2ccc(O)c(O)c2)oc2cc(O)cc(O)c12 [quercetin],,
,,,,,potent inhibition,O=c1cc(-c2ccc(O)cc2)oc2cc(O)cc(O)c12 [apigenin],,
